Series [1] deals with Calu-3 cells. Description: Uninfected Calu-3 48 h Cell-Titer Glo cytotoxicity counter screen. Particulars: for Calu-3 uninfected cytotoxicity Sinf Average: curve-fit effect at infinite concentration. In general terms: A counterscreen serves to expose hits that act by an unwanted route or on another target.
Series [2] relates to SARS-CoV-2. Description: microbe, parasite or virus in culture. Format: cell-based. Particulars: for HeLa-ACE2 CoV-2 Sinf Average: curve-fit effect at infinite concentration.
Series [3] deals with Calu-3 cells. Particulars: for Calu-3 cell count Sinf Average: curve-fit effect at infinite concentration; for EC50: read-out: Calu-3 cell count EC50 GeoMean.
For series [4], the system named is SARS-CoV-2. Briefly: microbe, parasite or virus in culture. Particulars: for Calu-3 CoV-2 Sinf Average: curve-fit effect at infinite concentration; for Emax: Severe acute respiratory syndrome coronavirus 2, Calu-3, 48 h, Sinf average of the curves, read-out: Calu-3 CoV-2 Sinf Average (%). It counts as cell-based.
In series [5] the test system is HeLa-ACE2 cells. Briefly: Uninfected HeLa-ACE2 24 h live/dead cytotoxicity counter screen. It counts as cell-based, human. Particulars: for HeLa-ACE2 uninfected cytotoxicity Sinf Average (%): Sinf average of the curves.
Series [6] concerns HeLa-ACE2 cells. The following applies: for EC50: read-out: HeLa-ACE2 cell count EC50 GeoMean, unrounded geometric mean; for HeLa-ACE2 cell count Sinf Average (%): Sinf average of the curves.
For series [7] the following is noted: human, cited from earlier work.
Series [8] concerns Calu-3 cells. Description: cells. Particulars: Homo sapiens; for Emax: Calu-3, 48 h, read-out: Calu-3 cell count Sinf Average (%); for EC50: Calu-3, read-out: Calu-3 cell count EC50 GeoMean (µM), geometric mean of replicates.
Series [9] relates to HeLa-ACE2 cells. Description: cells. The following applies: Homo sapiens, HeLa-ACE2, read-out: HeLa-ACE2 cell count EC50 GeoMean (µM), geometric mean of replicates.
A further series is described as follows: in vitro. The following applies: human, Calu-3 uninfected cytotoxicity CC50 GeoMean (µM).
Series [10] has as its system Calu-3 cells. The following applies: for Calu-3 uninfected cytotoxicity Sinf Average (%): human, 48 h.
Series [11] can be described thus: Uninfected HeLa-ACE2 24 h live/dead cytotoxicity counter screen. Format: cell-based, human. The following applies: human, uninfected HeLa-ACE2 cells, geometric mean of replicates; read-out: HeLa-ACE2 uninfected cytotoxicity CC50 GeoMean.
The test system of series [12] is SARS-CoV-2. Format: cell-based. Particulars: combination with remdesivir, synergy score δ.
The test system of another series is HepG2. The following applies: human, 72 h.
Series [13] has as its system SARS-CoV-2. Description: microbe, parasite or virus in culture. Particulars: read-out: HeLa-ACE2 TOA CoV-2 EC50 GeoMean. Format: cell-based.
The subject of the next series is HEK293T. Particulars: human, 72 h.
Series [14] deals with HeLa-ACE2 cells. Description: Total cell count in the HeLa-ACE2 TOA assay. Format: cell-based. The following applies: Homo sapiens, HeLa-ACE2, read-out: HeLa-ACE2 TOA cell count EC50 GeoMean. From the text: Supplement 41467_2021_23328_MOESM3_ESM.xlsx, sheet "Table S1" | column: HeLa-ACE2 TOA cell count
The mark [15] stands for this setting: read-out: Calu-3 uninfected cytotoxicity CC50 GeoMean, unrounded geometric mean.
The mark [16] stands for this setting: unrounded geometric mean, read-out: HeLa-ACE2 CoV-2 EC50 GeoMean.
The mark [17] stands for this setting: unrounded geometric mean, read-out: Calu-3 CoV-2 EC50 GeoMean.
[18] abbreviates: curve-fit effect at infinite concentration, average.
Where [19] appears, read: unrounded geometric mean, read-out: HeLa-ACE2 uninfected cytotoxicity CC50 GeoMean.
Where [20] appears, read: Severe acute respiratory syndrome coronavirus 2, HeLa-ACE2, geometric mean of replicates, read-out: HeLa-ACE2 CoV-2 EC50 GeoMean.
[21] abbreviates: Severe acute respiratory syndrome coronavirus 2, Calu-3, geometric mean of replicates, read-out: Calu-3 CoV-2 EC50 GeoMean.

Where two headings read alike, the source gives them in different places.

Usually CC50 stands for the concentration that lowers cell viability or growth by half. By EC50 is commonly meant the concentration needed to bring the measured effect to its halfway point. For Antimycin A3, the “Calu-3 uninfected cytotoxicity Sinf Average” value in the series with Calu-3 cells [1] was -79%. Moreover, the results for the CC50 in the series with Calu-3 cells [1] (setting [15]) and in the series with HeLa-ACE2 cells [5] (setting [19]) were over 3900 nM and over 39800 nM, respectively. Besides, the concentration for a half-maximal effect (EC50) in the series with SARS-CoV-2 [2] (setting [16]) is over 9590 nM; in the series with Calu-3 cells [3] (unrounded geometric mean), 62.6 nM; with SARS-CoV-2 [4] (setting [17]), 35.5 nM; in the series with HeLa-ACE2 cells [6], over 9590 nM. Moreover, the “Calu-3 cell count Sinf Average” value in the series on Calu-3 cells [3] stood at 47%. Also, in the series on SARS-CoV-2 [4], the “Calu-3 CoV-2 Sinf Average” value is recorded as -92%. Moreover, the “HeLa-ACE2 uninfected cytotoxicity Sinf Average” value in the series with HeLa-ACE2 cells [5] (setting [18]) is on record as -100%.
For `COc1ccc(C[C@H]2NC[C@H](O)[C@H]2OC(C)=O)cc1` [Anisomycin], the “Calu-3 uninfected cytotoxicity Sinf Average” value in the series on Calu-3 cells [1] is recorded as -66%. The “HeLa-ACE2 CoV-2 Sinf Average” value with SARS-CoV-2 [2] is -102%. Also, the EC50 in the series with SARS-CoV-2 [2] (setting [16]) is 66.4 nM; with Calu-3 cells [3] (unrounded geometric mean) it was over 2460 nM; in the series with SARS-CoV-2 [4] (setting [17]) it was 127 nM; with HeLa-ACE2 cells [6], 636 nM. In the series on Calu-3 cells [3], the “Calu-3 cell count Sinf Average” value was found to be 37%. The “Calu-3 CoV-2 Sinf Average” value in the series with SARS-CoV-2 [4] is listed as -98%. For the same molecule, the “HeLa-ACE2 uninfected cytotoxicity Sinf Average” value with HeLa-ACE2 cells [5] (setting [18]) is reported as -98%. The “HeLa-ACE2 cell count Sinf Average” value in the series on HeLa-ACE2 cells [6] (setting [18]) is -103%.
What is called Cmax is the peak of the concentration-time curve. In the case of Mitoguazone, the CC50 in the series with Calu-3 cells [1] (read-out: Calu-3 Uninf. cells CC50, reconfirmed hits) was over 30000 nM; in the series on Calu-3 cells [1] (setting [15]) it was over 29900 nM; in the series on HeLa-ACE2 cells [5] (reconfirmed hits, read-out: HeLa-ACE2 Uninf. cells CC50), over 40000 nM; in the series on HeLa-ACE2 cells [5] (setting [19]), over 39800 nM. For the same molecule, the “HeLa-ACE2 CoV-2 Sinf Average” value in the series with SARS-CoV-2 [2] is listed as -100%. In addition, the EC50 is over 9600 nM with SARS-CoV-2 [2] (reconfirmed hits, read-out: HeLa-ACE2 SARS-CoV-2 EC50); over 9590 nM in the series on SARS-CoV-2 [2] (setting [16]); over 4070 nM in the series on Calu-3 cells [3] (unrounded geometric mean); 446 nM with SARS-CoV-2 [4] (reconfirmed hits, read-out: Calu-3 SARS-CoV-2 EC50); 446 nM with SARS-CoV-2 [4] (setting [17]). The “Calu-3 cell count Sinf Average” value with Calu-3 cells [3] was 71%. Further, the “Approx. t1/2” value in series [7] (ref [33]-[49]) was 175 h. For the same molecule, the Cmax in series [7] (read-out: Approx. Cmax, IV, ref [44]) was 120 µM. For the same molecule, in the series with SARS-CoV-2 [4], the “Calu-3 CoV-2 Sinf Average” value is given as -94%. Besides, in the series on HeLa-ACE2 cells [5] (setting [18]), the “HeLa-ACE2 uninfected cytotoxicity Sinf Average” value is on record as -99%.
In the case of `CN(C)C(C(=O)Nc1ccc2c(=O)[nH]ccc2c1)c1ccsc1` (stereo not drawn) [Verosudil], the Emax in the series with Calu-3 cells [8] was determined as 79%; with SARS-CoV-2 [4] it was 93%. For the same molecule, the EC50 in the series with Calu-3 cells [8] was 0.561 µM; in the series on HeLa-ACE2 cells [9], over 9.59 µM; in the series with SARS-CoV-2 [2] (setting [20]), over 9590 nM; with SARS-CoV-2 [4] (setting [21]), over 3510 nM. In “in vitro”, this molecule yielded a CC50 at 48 h of over 18.9 µM. Also, in the series on Calu-3 cells [10], the “uninfected Calu-3 CC50 [μM]” value is on record as > 18.887 ×÷ 2.21 (n=3) μM. Also, in the series with Calu-3 cells [10], the “Calu-3 uninfected cytotoxicity Sinf Average (%)” value amounted to 80%. The “HeLa-ACE2 uninfected cytotoxicity Sinf Average (%)” value in the series with HeLa-ACE2 cells [5] is -100%. For the same molecule, the CC50 at 24 h in series [11] was over 39800 nM. Also, the “HeLa-ACE2 cell count Sinf Average (%)” value in the series on HeLa-ACE2 cells [6] was -100%.
As to `Cc1cccc(/C=N/Nc2cc(N3CCOCC3)nc(OCCc3ccccn3)n2)c1` [Apilimod - control], the “HeLa-ACE2 synergy score with remdesivi [δ]” value in the series with SARS-CoV-2 [12] amounted to 3.568. Moreover, the “HepG2 72-hour cytotoxicity Sinf Average” value in the series on HepG2 is on record as -69%. The EC50 was over 2400 nM in the series with SARS-CoV-2 [13]; 11 nM in the series on SARS-CoV-2 [2] (read-out: HeLa-ACE2 CoV-2 EC50 GeoMean); over 2500 nM in the series on Calu-3 cells [3]; 1870 nM with SARS-CoV-2 [4] (read-out: Calu-3 CoV-2 EC50 GeoMean); over 2400 nM in the series on HeLa-ACE2 cells [14]. The “HEK293T 72-hour cytotoxicty Sinf Average” value with HEK293T is listed as -79%. In addition, the Emax in the series with SARS-CoV-2 [2] (Severe acute respiratory syndrome coronavirus 2, HeLa-ACE2, 24 h, curve plateau at infinite concentration, read-out: HeLa-ACE2 CoV-2 Sinf Average) worked out at 95%. For the same molecule, in the series with HeLa-ACE2 cells [5] (curve plateau at infinite concentration), the “HeLa-ACE2 uninfected cytotoxicity Sinf Average” value was -100%. Moreover, the CC50 with HeLa-ACE2 cells [5] (read-out: HeLa-ACE2 uninfected cytotoxicity CC50 GeoMean) was over 11500 nM.
Oligomycin A: the concentration giving a half-maximal response (EC50) in the series on SARS-CoV-2 [2] (setting [16]) was over 9590 nM; in the series on Calu-3 cells [3] (unrounded geometric mean) it was over 220 nM; with SARS-CoV-2 [4] (setting [17]) it was under 7.35 nM; in the series with HeLa-ACE2 cells [6], over 9590 nM. The “Calu-3 cell count Sinf Average” value in the series with Calu-3 cells [3] came out at 50%.
On to `CC/C(=C(/c1ccc(/C=C/C(=O)O)cc1)c1ccc2[nH]ncc2c1)c1ccc(F)cc1Cl` [ARN-810], for which the Emax was found to be 79% in the series with Calu-3 cells [8] and 71% in the series with SARS-CoV-2 [4]. The EC50 with Calu-3 cells [8] is over 3.06 µM; in the series on HeLa-ACE2 cells [9], over 9.59 µM; with SARS-CoV-2 [2] (setting [20]) it was over 9590 nM; with SARS-CoV-2 [4] (setting [21]), 1100 nM. The molecule further had a CC50 at 48 h in “in vitro” of over 23.8 µM. Further, the “uninfected Calu-3 CC50 [μM]” value with Calu-3 cells [10] is listed as > 23.843 ×÷ 1.22 (n=3) μM. Moreover, the “Calu-3 uninfected cytotoxicity Sinf Average (%)” value in the series on Calu-3 cells [10] was -89%. Also, in the series on HeLa-ACE2 cells [5], the “HeLa-ACE2 uninfected cytotoxicity Sinf Average (%)” value is given as -99%. Besides, in [11], the CC50 at 24 h was 11000 nM. In the series with HeLa-ACE2 cells [6], the “HeLa-ACE2 cell count Sinf Average (%)” value is -100%.

These data come from publication PMC8175350, “Drug repurposing screens identify chemical entities for the development of COVID-19 interventions” (Nature Communications, 2021).
